The text below walks through data of patent US20220332799A1, “HERV INHIBITORS FOR USE IN TREATING TAUOPATHIES” (Deutsches Zentrum Für Neurodegenerative Erkrankungen E.V. …, priority 2019, published 2022).

One assay relates to MuERV env and gag mRNA. Nature of the assay: qRT-PCR of MuERV env and gag transcripts in donor clone s2E. Format: cell-based, mouse. To be noted: for expression of total env and gag mRNA: s2E P1 donors, Aza 200 nM or Dec 100 nM, then 5 days without drug, vs DMSO; for total env and gag mRNA: s2E P21 donors, L-methionine 80 mM, Betaine 80 mM, Choline chloride 20 mM, 6 days, vs medium control. The method, then: To inhibit methyltransferases, s2E P1 donor cells were treated for three days with methyltransferase inhibitors 5-Azacytidine (Aza) 200 nM, Decitabine (Dec) 100 nM or DMSO as solvent control. Subsequently, the cells were cultured in the absence of the drugs for 5 days. Pre-treated donor cells were subsequently cocultured with recipient cells as described above to monitor aggregate induction efficiency in recipient N2a NM-GFP^sol cells. Cell lysates of donor cells were also analyzed for MuERV Env and Gag expression levels by western blot. To increase DNA methylation, the s2E donor clone (P21) was treated with methyl group donors L-methionine (L-M) 80 mM, Betaine (B) 80 mM, Choline chloride (CC) 20 mM or medium control for 6 days. MuERV Env and Gag protein levels were analyzed by western blot. Subsequently, cells were cocultured with recipient cells for 16 h. The percentage of aggregate containing recipient cells was compared to the percentage of aggregate bearing recipients cocultured with solvent-treated donors. […]
Total RNA from cell pellets or brain samples was isolated using the RNeasy Mini Kit or RNeasy Lipid Tissue Mini Kit (Qiagen). RNA concentration and quality were determined using the Agilent 2100 Bioanalyzer System. For a 20 μl reaction, 1 μg RNAs were reversely transcribed to cDNA using the iScript™ cDNA Synthesis Kit (Bio-Rad). For a 20 μl qRT-PCR reaction, 2 μl of synthesized cDNA was used as template. For qRT-PCR of murine env AA037244.2 and gag AID54952, custom designed TaqMan probes were used (Thermo Fisher Scientific). Pre-designed TaqMan probes by the company for murine pan-env, xpr1, mcat-1 and gapdh as housekeeping control and TaqMan™ Gene Expression Master Mix (Thermo Fisher Scientific) were used. qRT-PCR using TaqMan probes was performed as described in the manufacturer's instruction. For qRT-PCR analyses of HERV family members, primers were designed using the corresponding cDNA sequences (cf. SEQ ID NOs. 73-92). PowerUP SYBR™ Green Master Mix (Thermo Fisher Scientific) was mixed with different cDNAs and corresponding primers as indicated in the instruction. The fast cycling mode was used for all primers.
A general note: Quantitative PCR measures a nucleic acid by following its amplification.

The next assay relates to N2a NM-GFP^sol cells. Format: cell-based, mouse. To be noted: for percentage of recipient cells with NM-GFP aggregates: compounds added to cocultures 1 h after co-seeding, three concentrations, 12 h.
In another assay the test system is MuERV Env and Gag. Type of assay: cell-based, mouse. The procedure:
To inhibit methyltransferases, s2E P1 donor cells were treated for three days with methyltransferase inhibitors 5-Azacytidine (Aza) 200 nM, Decitabine (Dec) 100 nM or DMSO as solvent control. Subsequently, the cells were cultured in the absence of the drugs for 5 days. Pre-treated donor cells were subsequently cocultured with recipient cells as described above to monitor aggregate induction efficiency in recipient N2a NM-GFP^sol cells. Cell lysates of donor cells were also analyzed for MuERV Env and Gag expression levels by western blot. To increase DNA methylation, the s2E donor clone (P21) was treated with methyl group donors L-methionine (L-M) 80 mM, Betaine (B) 80 mM, Choline chloride (CC) 20 mM or medium control for 6 days. MuERV Env and Gag protein levels were analyzed by western blot. Subsequently, cells were cocultured with recipient cells for 16 h. The percentage of aggregate containing recipient cells was compared to the percentage of aggregate bearing recipients cocultured with solvent-treated donors.
Pre-designed siRNAs against murine XPR1 and mCat-1 genes were used to knock-down genes coding for putative receptors. For transfection, 2-4×10^5 cells/well were seeded on 6 well plates. The next day, 30 nM siRNA or plasmid DNA was transfected using Lipofectamine RNAiMAX or Lipofectamine2000 transfection reagent, respectively, according to the manufacturer's instructions (Thermo Fisher Scientific). After 2 days, transfected cells were harvested for aggregate induction assays and qRT-PCR, western blot analysis.
For Western blot analysis, protein concentrations were measured using the Quick Start™ Bradford Protein assay (Bio-Rad). Proteins were separated on NuPAGE®Novex® 4-12 Bis-Tris Protein Gels (Life Technologies) followed by transfer onto a PVDF membrane (GE Healthcare). Western blot analysis was performed using rat hybridoma anti-MuERV Env mAb83A25; anti-xenotropic MuLV virus antibody ABIN457298 for detecting both Env and Gag (antibodies-online); mouse anti-MuERV Gag ab100970 (Abcam); mouse anti-Alix (1:1000; BD Bioscience); rat anti-HA 3F10 (1:1000; Roche); mouse anti-GAPDH 6C5 (1:5000; Abcam); mouse anti-Hsc/Hsp70 N27F3-4 (1:1000; ENZO); mouse anti-VSV-G A5977 (Sigma); rabbit anti-Tau ab64193 (Abcam); mouse anti-HERV K Env HERM-1811-5 (Amsbio); mouse anti-HERV K Gag HERM-1841-5 (Amsbio). The membrane was incubated with Pierce™ ECL Western Blotting Substrate (Thermo Fisher Scientific) according to the manufacturer's recommendations.

Assay [1] deals with HEK Tau-FRsol cells. Nature of the assay: Tau-FR aggregate induction by coculture with A375 Tau-GFPAD donor cells. Type of assay: cell-based, human. To be noted: donors 10 μM for 3 d; coculture 3 d in presence of 10 μM; vs DMSO. The method, then:
(§1) Melanoma cell line A375 (Oricchio E, Sciamanna I, Beraldi R, Tolstonog G V, Schumann G G, Spadafora C. 2007. Distinct roles for LINE-1 and HERV-K retroelements in cell proliferation, differentiation and tumor progression. Oncogene 26:4226-4233) was engineered to stably express Tau-GFP and subsequently exposed to AD brain homogenate to induce Tau aggregation. A clone stably propagating Tau-GFPagg was isolated and used for experiments. Donor A375 Tau-GFPAD cells were treated with 10 μM inhibitor Lopinavir to repress HERV-K protease for 3 d before EV were harvested. Donors or donor EV were then cultured with recipient HEK Tau-FRsol cells in the presence of 10 μM Lopinavir or DMSO for 3 d. • b. Quantitative analysis of recipient cells with Tau-FRagg upon coculture with donors. Statistical analysis was performed with unpaired Student's t-test (n=6). • c. Quantitative analysis of recipient cells with induced Tau-FRagg following exposure to donor-derived EV. Statistical analysis was performed with unpaired Student's t-test (n=3). […]
(§2) To inhibit methyltransferase, MCF-7 Tau-GFPAD cells were treated with 2 μM Aza or DMSO for 4 d. […] Afterwards, the total numbers of viable cells and the viability upon drug treatments were determined using the Vi-VELLTMXR Cell Viability Analyzer (Beckman Coulter). […]

In the next assay the target is T1, HERV-K protease (Homo sapiens, UniProt P10265).
T1 sequence (P10265 1-156): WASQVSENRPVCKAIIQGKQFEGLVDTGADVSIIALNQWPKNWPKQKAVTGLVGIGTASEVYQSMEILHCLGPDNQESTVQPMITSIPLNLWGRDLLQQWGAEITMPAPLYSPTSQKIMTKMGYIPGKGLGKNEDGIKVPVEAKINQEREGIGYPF
The conditions noted are these: stated as shown previously; cited from earlier work.

Assay [2] has as its system HEK Tau-FRsol cells. Description: Tau-FR aggregate induction by EV from A375 Tau-GFPAD donor cells. Type of assay: cell-based, human. The conditions noted are these: EV from donors treated with 10 μM for 3 d; 3 d on recipients in presence of 10 μM; vs DMSO. The procedure:
as §1, §2

SMILES strings stand for the structures. Entries after “also recorded” stand apart in the source; their conditions may differ. Like-named read-outs stand apart in the source and are kept apart here.

Consider `Nc1ncn([C@@H]2O[C@H](CO)[C@@H](O)[C@H]2O)c(=O)n1` [5-Azacytidine], for which the “expression of total env and gag mRNA” value in the assay on MuERV env and gag mRNA was “increased expression of total env and gag mRNA”; in the assay on MuERV env and gag mRNA (listed as 5-azacytidine) it was “Increased expression of MuERV env (f), gag (h) and pan-env (g) transcripts”. Further, the “NM aggregate induction in recipient cells cocultured with pretreated donors” value in the assay with N2a NM-GFP^sol cells (s2E P1 donors pretreated, Aza 200 nM or Dec 100 nM, vs DMSO) was “significantly increased NM aggregate induction in recipient cells”. Moreover, in the assay on MuERV Env and Gag (s2E P1 donors, Aza 200 nM or Dec 100 nM, then 5 days without drug, vs DMSO), the “expression of MuERV proteins” value is “increased expression”.

Turning to `COC(=O)N[C@H](C(=O)N[C@@H](Cc1ccccc1)[C@@H](O)CN(Cc1ccc(-c2ccccn2)cc1)NC(=O)[C@@H](NC(=O)OC)C(C)(C)C)C(C)(C)C` [atazanavir], the “percentage of recipient cells with NM-GFP aggregates” value in the assay with N2a NM-GFP^sol cells (vs DMSO) was “reduced the percentage of recipient cells with NM-GFP aggregates”; in the assay with N2a NM-GFP^sol cells (vs DMSO, listed as Atazenavir) it was “reduce aggregate induction”.

Regarding `CSCC[C@H](N)C(=O)O` [L-methionine], the “total env and gag mRNA” value is “transcripts decreased” in the assay on MuERV env and gag mRNA; “decreased total env and gag mRNA” with MuERV env and gag mRNA (listed as 1-methionine). Moreover, the “NM-GFP aggregate induction when pretreated donors were cocultured with recipient cells” value (“NM-GFP aggregate induction” for short) with N2a NM-GFP^sol cells was “decreased NM-GFP aggregate induction”. The MuERV proteins result with MuERV Env and Gag is on record as “decreased”.

As to `C[N+](C)(C)CCO.[Cl-]` [Choline chloride], the “total env and gag mRNA” value is “transcripts decreased” in the assay on MuERV env and gag mRNA; “decreased total env and gag mRNA” in the assay on MuERV env and gag mRNA (listed as choline chloride). Besides, the “NM-GFP aggregate induction” value in the assay with N2a NM-GFP^sol cells is recorded as “decreased NM-GFP aggregate induction”. Besides, the MuERV proteins entry in the assay with MuERV Env and Gag is listed as “decreased”.

For `C[N+](C)(C)CC(=O)O` [Betaine], the “total env and gag mRNA” value with MuERV env and gag mRNA was “transcripts decreased”; in the assay on MuERV env and gag mRNA (listed as betaine), “decreased total env and gag mRNA”. In addition, in the assay with N2a NM-GFP^sol cells (s2E P21 donors pretreated 6 days, coculture 16 h), the “NM-GFP aggregate induction” value is on record as “decreased NM-GFP aggregate induction”. Further, in the assay on MuERV Env and Gag (s2E P21 donors, L-methionine 80 mM, Betaine 80 mM, Choline chloride 20 mM, 6 days, vs medium control), the MuERV proteins result was “decreased”.

As to `Cc1cccc(C)c1OCC(=O)N[C@@H](Cc1ccccc1)[C@@H](O)C[C@H](Cc1ccccc1)NC(=O)[C@H](C(C)C)N1CCCNC1=O` [Lopinavir], in the assay on HEK Tau-FRsol cells [1], the “recipient cells with Tau-FRagg upon coculture with donors” value was “significant reduction of recipient cells with aggregates; also recorded: reduces intercellular Tau aggregate spreading; also recorded: reduces intercellular protein aggregate spreading”. Also, at HERV-K protease, the “inhibition of HERV-K protease required for HERV protein maturation” value was “inhibit HERV-K protease”. In addition, in the assay on HEK Tau-FRsol cells [2], the “Tau aggregate inducing activity of donor-derived EV in recipients” value is “reduced Tau aggregate inducing activity in recipients”.
